This note sets out measurements from publication PMC6407576, “Synthesis and evaluation of anticancer, antiphospholipases, antiproteases, and antimetabolic syndrome activities of some 3H-quinazolin-4-one derivatives” (Journal of Enzyme Inhibition and Medicinal Chemistry, 2019).

Data set [1] concerns HT-29 cells. Kind of data set: MTT cell viability assay. Type of data set: cell-based, Human. The note with it: for inhibition of cell viability (in words): HT-29, 30 μg/ml, MTT. The protocol:
(§1) Human CRC cell lines, HT-29 and SW620 cells were grown in RPMI (Invitrogen) containing 10% heat-inactivated foetal bovine serum, 100 µg/ml streptomycin, 100 units/ml penicillin and 2 mmol/l L-glutamine.
(§2) Cell viability was determined using the 3-(4, 5-dimethylthiazolyl-2)–2, 5-diphenyltetrazolium bromide) MTT assay according to Mosmann[40]. 5-Fluorouracil (5-FU) was used as positive control. Briefly, after culturing cells in 96 well plates for 24 h, they were treated with different compounds (30 μg/ml) for 24 h. Freshly prepared MTT (5 mM) solutions were added to the cells and were further incubated for 2 h at 37 °C in 5% CO2. One hundred microliters of dimethyl sulphoxide (DMSO) was added in each well to dissolve the formazan crystal, formed in the reaction during incubation by careful pipetting. The absorbance of the product was measured at 540 nm using a microplate reader. The experiments were performed in triplicate for each condition. The graph illustrates the mean and standard deviation (SD) values of three independent experiments.

In data set [2] the test system is SW620 cells. Kind of data set: MTT cell viability assay. Type of data set: cell-based, Human. The settings on record: for inhibition of cell viability (in words): SW620, 30 μg/ml, MTT. The protocol: as §1, §2
The target in data set [3] is T1, human group IIA (hG-IIA) sPLA2 (Homo sapiens, UniProt P14555).
T1 sequence (P14555 21-144): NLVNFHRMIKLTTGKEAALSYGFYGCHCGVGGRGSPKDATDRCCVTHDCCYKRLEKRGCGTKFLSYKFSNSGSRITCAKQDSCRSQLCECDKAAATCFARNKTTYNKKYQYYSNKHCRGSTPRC
Kind of data set: In vitro antiphospholipase activity. Type of data set: biochemical.

The target of data set [4] is T2, human group V (hG-V) sPLA2 (Homo sapiens, UniProt P39877).
T2 sequence (P39877 21-138): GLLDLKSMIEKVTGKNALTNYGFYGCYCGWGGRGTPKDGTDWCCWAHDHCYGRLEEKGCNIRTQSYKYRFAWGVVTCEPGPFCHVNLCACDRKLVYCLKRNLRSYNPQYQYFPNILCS
Kind of data set: In vitro antiphospholipase activity. Type of data set: biochemical.

The target of data set [5] is T3, human group X (hG-X) sPLA2 (Homo sapiens, UniProt O15496).
T3 sequence (O15496 43-165): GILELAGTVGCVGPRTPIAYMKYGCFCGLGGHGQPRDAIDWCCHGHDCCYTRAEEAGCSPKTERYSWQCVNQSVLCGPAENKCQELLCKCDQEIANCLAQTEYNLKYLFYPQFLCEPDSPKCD
Kind of data set: In vitro antiphospholipase activity. Type of data set: biochemical.

The target of data set [6] is Naja mossambica mossambica sPLA2 (NmPLA2). Kind of data set: In vitro antiphospholipase activity. Type of data set: biochemical. The settings on record: 20 min preincubation, lecithin substrate, pH 7.6.
Data set [7] deals with Apis mellifera bee venom (AmPLA2) (Apis mellifera, UniProt P00630). Kind of data set: biochemical.
The target in another data set is cathepsin-B (Homo sapiens, UniProt P07858). Kind of data set: In vitro antiprotease activity. Type of data set: biochemical. In outline: (§3)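 Inhibition percentage measured relative to a control experiment; IC50 values derived from a standard curve. A protease inhibitor cocktail served as positive control.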
The target of the next data set is collagenase. Kind of data set: In vitro antiprotease activity. The settings on record: 15 min preincubation. Type of data set: biochemical. In outline:
as §3

The next data set has as its target elastase. Kind of data set: In vitro antiprotease activity. Type of data set: biochemical. The settings on record: 15 min preincubation. The method in brief:
as §3

Another data set addresses thrombin (Homo sapiens, UniProt P00734). Kind of data set: In vitro antiprotease activity. Type of data set: biochemical. The method in brief:
as §3

The next data set deals with T4, trypsin (Bos taurus, UniProt P00760).
T4 construct: gene PRSS1
T4 sequence (P00760 24-246): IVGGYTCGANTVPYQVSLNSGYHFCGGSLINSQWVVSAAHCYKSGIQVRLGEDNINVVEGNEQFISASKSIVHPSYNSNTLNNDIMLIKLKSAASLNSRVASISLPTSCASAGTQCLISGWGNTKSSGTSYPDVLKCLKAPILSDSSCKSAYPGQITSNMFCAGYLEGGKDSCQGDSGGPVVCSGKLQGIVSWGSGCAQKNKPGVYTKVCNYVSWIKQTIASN
Kind of data set: In vitro antiprotease activity. Type of data set: biochemical. In outline:
as §3

A further data set concerns the target xanthine oxidase (Homo sapiens, UniProt P47989). Kind of data set: In vitro inhibition of xanthine oxidase. Type of data set: biochemical.
Data set [8] deals with HT-29 cells. Kind of data set: Cytotoxicity assay using the xCELLigence system. Type of data set: cell-based, Human. The note with it: HT-29, 20 and 40 µg/ml, 3 d, xCELLigence RTCA. The protocol: (§4) The optimal seeding concentration for proliferation of HT-29 was determined. HT-29 cells (5000 cell in 150 µl medium/well) and SW620 cells (12,000 cell in 150 µl medium/well) were seeded in 16 well plates (E-plate 16-ACEA Biosciences Inc., San Diego, CA) as described in the xCELLigence Real Time Cell Analyzer (RTCA) DP instrument manual provided by the manufacturer. After 24 h, 20 and 40 µg/ml of compound 15d were added and the experiments were allowed to run for another 3 d. Baseline cell indexes were calculated for at least two measurements from three replicate experiments.

In data set [9] the test system is SW620 cells. Kind of data set: Cytotoxicity assay using the xCELLigence system. The settings on record: SW620, 20 and 40 µg/ml, 3 d, xCELLigence RTCA. Type of data set: cell-based, Human. Here is the method: as §4
The next data set deals with Bcl2. Kind of data set: Western blotting of anti-apoptotic protein expression. Type of data set: cell-based, Human. The note with it: SW620 cells, various concentrations, 24 h, immunoblot. The protocol:
(§5) Whole cell lysates were prepared using radioimmunoprecipitation assay (RIPA) lysis buffer as described by Al-Khayal and co-workers[41]. Total protein concentration was determined using Bradford protein reagent (Bio-Rad, Hercules, CA). Soluble proteins were loaded on precast TGX gels and were analysed using immunoblotting with anti-Bcl2, anti-BclxL (dilution 1:1000; Santa Cruz Biotechnology, Dallas, TX), and anti-β-actin (1:10,000 Sigma, St. Louis, MO). Reactivity was detected using horseradish peroxidase-conjugated secondary antibodies and chemiluminescence by Clarity Western ECL substrate (Bio-Rad). Membrane was developed using C-Digit Blot Scanner (LI-COR, Hamburg, Germany).
(§6) SW620 cells were treated with various concentrations of 15d for 24 h.

The test system of another data set is BclxL. The data set is described as above. Type of data set: cell-based, Human. The settings on record: SW620 cells, various concentrations, 24 h, immunoblot. Here is the method:
as §5, §6

Data set [10] concerns HT-29 cells. Kind of data set: MTT cell viability assay. Type of data set: cell-based. The settings on record: Homo sapiens, HT-29, read-out: IC50 (cell viability).
Data set [11] relates to SW620 cells. Kind of data set: MTT cell viability assay. Type of data set: cell-based. The settings on record: Homo sapiens, SW-620, read-out: IC50 (cell viability).
For the next data set, the target named is T5, α-glucosidase (Saccharomyces cerevisiae, UniProt P53341).
T5 construct: purchased Sigma
Kind of data set: In vitro inhibition of α-glucosidase activity. Type of data set: biochemical.

Setting [12] is: 20 min preincubation, lecithin substrate, pH 7.6, read-out: mean IC50 against hG-V (converted).
[13] abbreviates: 20 min preincubation, lecithin substrate, pH 7.6, read-out: mean IC50 against hG-X (converted).
Setting [14] is: 15 min preincubation, read-out: mean IC50 against Cathepsin-B (converted).
The mark [15] stands for this setting: 15 min preincubation, read-out: mean IC50 against Thrombin (converted).
The mark [16] stands for this setting: 15 min preincubation, read-out: mean IC50 against Trypsin (converted).

Structures are written as SMILES. ≈ marks a conversion by molar mass, not a printed value. Entries after “also recorded” stand apart in the source; their conditions may differ. Like-named read-outs stand apart in the source and are kept apart here.

Chain of xanthine oxidase (P47989 whole entry, species assumed): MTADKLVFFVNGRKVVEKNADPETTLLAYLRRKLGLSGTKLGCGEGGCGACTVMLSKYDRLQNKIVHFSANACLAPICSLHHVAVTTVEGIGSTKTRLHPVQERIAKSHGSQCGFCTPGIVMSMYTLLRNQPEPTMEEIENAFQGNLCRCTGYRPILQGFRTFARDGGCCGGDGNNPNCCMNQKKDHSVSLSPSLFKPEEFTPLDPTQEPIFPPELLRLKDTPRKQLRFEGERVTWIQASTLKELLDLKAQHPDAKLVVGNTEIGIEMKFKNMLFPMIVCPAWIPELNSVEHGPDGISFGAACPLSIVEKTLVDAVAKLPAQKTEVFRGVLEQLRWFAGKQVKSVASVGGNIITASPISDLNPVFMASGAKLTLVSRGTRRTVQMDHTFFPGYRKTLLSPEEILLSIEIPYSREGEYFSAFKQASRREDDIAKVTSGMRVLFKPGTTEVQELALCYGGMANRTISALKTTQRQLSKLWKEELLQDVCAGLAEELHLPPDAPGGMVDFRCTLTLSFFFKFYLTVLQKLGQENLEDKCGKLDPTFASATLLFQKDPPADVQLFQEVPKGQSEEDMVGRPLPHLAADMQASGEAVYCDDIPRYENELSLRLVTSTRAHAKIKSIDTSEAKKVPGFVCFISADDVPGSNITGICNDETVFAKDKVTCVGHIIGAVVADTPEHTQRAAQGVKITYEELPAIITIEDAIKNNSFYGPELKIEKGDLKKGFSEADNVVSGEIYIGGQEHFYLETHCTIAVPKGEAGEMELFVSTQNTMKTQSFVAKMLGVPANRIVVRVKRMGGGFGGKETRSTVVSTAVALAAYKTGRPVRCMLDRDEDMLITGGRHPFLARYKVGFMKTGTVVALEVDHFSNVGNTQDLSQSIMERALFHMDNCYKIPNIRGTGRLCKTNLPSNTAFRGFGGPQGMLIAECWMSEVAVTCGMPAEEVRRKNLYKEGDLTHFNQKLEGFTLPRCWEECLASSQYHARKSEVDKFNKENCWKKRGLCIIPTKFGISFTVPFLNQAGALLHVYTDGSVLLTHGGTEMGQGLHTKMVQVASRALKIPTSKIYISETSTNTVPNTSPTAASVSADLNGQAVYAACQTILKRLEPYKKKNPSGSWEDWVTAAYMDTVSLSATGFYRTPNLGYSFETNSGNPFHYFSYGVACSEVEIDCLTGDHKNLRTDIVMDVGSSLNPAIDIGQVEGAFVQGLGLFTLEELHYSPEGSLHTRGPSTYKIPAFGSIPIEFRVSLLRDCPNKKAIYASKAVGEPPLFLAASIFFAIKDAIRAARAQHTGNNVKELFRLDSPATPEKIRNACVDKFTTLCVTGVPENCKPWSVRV
Chain of Apis mellifera bee venom (AmPLA2) (P00630 34-167 limits assumed): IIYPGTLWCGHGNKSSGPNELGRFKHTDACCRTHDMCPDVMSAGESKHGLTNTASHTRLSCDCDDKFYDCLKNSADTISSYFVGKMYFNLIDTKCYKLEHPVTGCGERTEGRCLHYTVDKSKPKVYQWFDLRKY
T5 sequence (P53341 whole entry): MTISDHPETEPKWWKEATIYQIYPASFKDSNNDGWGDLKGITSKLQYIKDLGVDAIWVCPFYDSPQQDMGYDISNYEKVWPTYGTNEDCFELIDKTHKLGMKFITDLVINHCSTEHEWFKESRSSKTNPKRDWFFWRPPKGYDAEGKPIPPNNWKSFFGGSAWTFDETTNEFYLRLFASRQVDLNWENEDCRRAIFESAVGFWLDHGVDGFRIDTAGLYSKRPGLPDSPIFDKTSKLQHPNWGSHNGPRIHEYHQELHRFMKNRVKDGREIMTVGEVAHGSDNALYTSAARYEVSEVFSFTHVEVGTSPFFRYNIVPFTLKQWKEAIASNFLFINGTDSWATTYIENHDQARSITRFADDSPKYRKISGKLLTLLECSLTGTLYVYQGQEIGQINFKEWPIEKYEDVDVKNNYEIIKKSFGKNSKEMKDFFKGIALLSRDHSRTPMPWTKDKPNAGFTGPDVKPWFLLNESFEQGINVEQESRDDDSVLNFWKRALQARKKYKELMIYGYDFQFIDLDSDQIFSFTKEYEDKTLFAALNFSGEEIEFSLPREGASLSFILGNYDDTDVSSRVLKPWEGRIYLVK
Method for xanthine oxidase: The xanthine oxidase inhibitory activities of the examined chemical compounds were determined by following the formation of uric acid from xanthine according to the reported method by Bondet and co-workers[46]. […] The results were expressed as IC50 determined from the curve.
Method for α-glucosidase: The colorimetric assay included 2 U of α-glucosidase, 5 mM of 4-NPGP, and 10 mM potassium phosphate buffer, pH 6.9. […] The reading assay was performed using a microplate reader at 405 nm. […] The results were expressed as IC50 determined from the curve.

Take `Cc1ccc2nc(SCc3ccc(Cl)cc3)n(-c3ccccc3)c(=O)c2c1` [Compound 15b, 2-(4-Chloro-benzylsulfanyl)-6-methyl-3-phenyl-3H-quinazolin-4-one]: the melting point was in the range of 164 to 165 °C. In addition, the “inhibition of cell viability (in words)” value in the data set with HT-29 cells [1] was “potently capable of inhibiting cell viability”. Besides, the “inhibition of cell viability (in words)” value with SW620 cells [2] is listed as “potently capable of inhibiting cell viability”. The molecule also gave an IC50 in data set [3] of 66.2 µM. The IC50 in data set [4] (setting [12]) is 46.8 µM. In data set [5] (setting [13]), the IC50 is 34.4 µM. Moreover, the “mean IC50 against NmPLA2” value in [6] was found to be 14.85 ± 0.50 µg/mL. Also, in [7], the IC50 is 34.6 µM. Also, the IC50 at cathepsin-B (setting [14]) was 34.4 µM. Also, the “mean IC50 against Collagenase” value on collagenase was determined as 26.50 ± 2.12 µg/mL. Further, the “mean IC50 against Elastase” value at elastase came to 0.65 ± 0.02 µg/mL. In addition, on thrombin (setting [15]), the 50% inhibitory concentration (IC50) was 2.55 µM. Moreover, the IC50 on trypsin (setting [16]) was 1.27 µM. For the same molecule, the IC50 on xanthine oxidase is 49.6 µM.

In the case of `Cc1ccc2nc(SCC(=O)Nc3c(C)cccc3C)n(-c3ccccc3)c(=O)c2c1` [Compound 15d, N-(2,6-Dimethyl-phenyl)-2-(6-methyl-4-oxo-3-phenyl-3,4-dihydro-quinazolin-2-ylsulfanyl) -acetamide], the melting point lay within 229 to 230 °C. In addition, the “inhibition of cell viability (in words)” value in the data set on HT-29 cells [1] is listed as “potently capable of inhibiting cell viability”. In the data set on HT-29 cells [1] (Homo sapiens, HT-29, 24 h, read-out: cell viability), the viability at 30 µg/mL was 38%. Further, the viability at 30 µg/mL in the data set with SW620 cells [2] (Homo sapiens, SW-620, 24 h, read-out: cell viability) was 36.7%. The “inhibition of cell viability (in words)” value with SW620 cells [2] is given as “potently capable of inhibiting cell viability”. Moreover, the “cell proliferation, real time (in words)” value in the data set on HT-29 cells [8] is “inhibit the cell proliferation”. Besides, in the data set with SW620 cells [9], the “cell proliferation, real time (in words)” value is reported as “inhibit the cell proliferation”. Besides, the “expression of Bcl2” value with Bcl2 is “down regulating; also recorded: inhibited”. Also, the “expression of BclxL” value in the data set on BclxL is given as “down regulating; also recorded: inhibited”. The IC50 in data set [3] was 16.6 µM. The IC50 in data set [4] (setting [12]) was 24.4 µM. The IC50 in data set [5] (setting [13]) is 54.7 µM. Moreover, in data set [6], the “mean IC50 against NmPLA2” value came to 8.50 ± 2.12 µg/mL. In addition, the IC50 in [7] was 14 µM. Besides, the IC50 on cathepsin-B (setting [14]) was 9.31 µM. The “mean IC50 against Collagenase” value on collagenase was found to be 10.50 ± 0.71 µg/mL. Moreover, on elastase, the “mean IC50 against Elastase” value is 15.50 ± 2.12 µg/mL. Also, at thrombin (setting [15]), the IC50 was 39.6 µM. Besides, at trypsin (setting [16]), the concentration for half-maximal inhibition (IC50) is 32.6 µM. For the same molecule, 165 µM corresponded to half-maximal inhibition against xanthine oxidase (IC50). Moreover, the IC50 in the data set with HT-29 cells [10] is ~20 µg/mL (≈ 46.6 µM). The IC50 with SW620 cells [11] is ~20 µg/mL (≈ 46.6 µM).

Turning to `COc1cc(-n2c(C)nc3ccccc3c2=O)cc(OC)c1OC` [Compound 5a, 2 -Methyl-3-(3,4,5-trimethoxy-phenyl)-3H-quinazolin-4-one], the melting point was 88 to 90 °C. This molecule had an IC50 in data set [3] of 21.4 µM. The IC50 in [4] was 29.4 µM. In data set [5], the IC50 was 23.4 µM. Further, the “mean IC50 against NmPLA2” value in data set [6] is 6.00 ± 0.71 µg/mL. In [7], this molecule showed an IC50 of 16.9 µM. For the same molecule, at cathepsin-B, 25.3 µM corresponded to half-maximal inhibition (IC50). Further, the “mean IC50 against Collagenase” value at collagenase is 12.25 ± 1.77 µg/mL. The “mean IC50 against Elastase” value at elastase was 23.5 ± 0.71 µg/mL. Also, the IC50 against thrombin was 67.4 µM. Besides, on trypsin, inhibition was half-maximal at 88.9 µM (IC50). On α-glucosidase, the IC50 was 64.3 µM. On xanthine oxidase, this molecule gave an IC50 of 22.2 µM.
